# Reference: patent US20190247373A1, “METHODS FOR TREATING FIBROSIS” (CHILDREN'S HOSPITAL MEDICAL CENTER, priority 2016, published 2019)
# How the values were obtained:
# [1] = treatment of idiopathic pulmonary fibrosis; cited from earlier work
# mice = experiment: Mouse model of bleomycin-induced pulmonary fibrosis (repetitive intradermal bleomycin); format: in vivo; conditions: bleomycin 6 units per kg intradermally, 5 days a week for 4 wks; vs saline-treated controls
# Excerpt: FIG. 5: Mouse model of bleomycin-induced pulmonary fibrosis. Masson's trichrome-stained lung sections show extensive collagen deposition in mice treated intradermally with bleomycin (6 U/kg body weight; 5 days/week for 4 weeks) (B) compared to saline (A).
# We developed an alternative mouse model of bleomycin-induced pulmonary fibrosis. For these experiments, we injected mice (N=5 mice/group) intradermally with bleomycin (6 units per kg body weight) for 5 days in a week for a total of 4 wks.
# IPF fibroblasts = experiment: Gene expression in primary fibroblasts isolated from fibrotic lesions of IPF lungs; format: cell-based, human; conditions: naltrexone 10 μM, 24 hrs, vs vehicle
# Procedure: FIG. 10: Naltrexone treatment attenuates ECM and proliferation gene expression in IPF fibroblasts. Expression of ECM genes (FN1, Col3α, and αSMA) and proliferation gene (Aurka) was attenuated in IPF fibroblasts treated with naltrexone (10 μM) compared to vehicle treatment for 24 hrs in IPF fibroblasts. Unpaired t-test (N=3/group; *P<0.05).
# We treated primary fibroblasts isolated from fibrotic lesions of IPF lungs. […] These findings are consistent with a mechanism of action for opioid receptor inhibitors (e.g., naltrexone) that influences (e.g., decreases) ECM and proliferation.
# TGFα mice [2] = experiment: Short-term naltrexone therapy in TGFα-induced pulmonary fibrosis: total lung RNA gene expression; format: in vivo; conditions: 10 mg/kg or 50 mg/kg b.i.d. for one week, started after two weeks on Dox; vs vehicle
# Procedure: FIG. 6: Naltrexone therapy attenuates ECM and proliferative gene expression in pulmonary fibrosis. (A) Experimental schemata of naltrexone therapy study in vivo. Three groups of mice on Dox for two weeks were treated with either vehicle or naltrexone (10 mg/kg or 50mg/kg bodyweight, b.i.d) and sacrificed after a week of treatment while continued on Dox. Total lung RNA was analyzed for the expression of: (B) ECM genes (FN1, Col5α, and Col6α) and (C) proliferation genes (Aurka, IL-6, and Calcb). One-Way ANOVA (N=4/group; *P<0.05).
# (§1) To probe mechanisms of EGFR-mediated lung remodeling, we generated transgenic mice in which TGFα was conditionally overexpressed in the lung epithelium using the CCSP rtTA promoter. When doxycycline (Dox) was administered, overexpression of TGFα in the adult mice (N=4−5 mice/group) caused progressive and extensive adventitial, interstitial, and subpleural fibrosis. Several histological features of fibrosis in the TGFα model were found in the pathologic lesions of IPF, including subpleural fibrosis radiating into the adjoining interstitium and the differentiation of myofibroblasts (FIG. 3). Physiologically, the mice developed progressive cachexia and lung-function decline with gene expression profiles similar to human IPF. The proenkephalin A (PENK) gene that codes for several opioid peptides was elevated in fibrotic lungs during TGFα-induced pulmonary fibrosis (FIG. 4).
# Naltrexone therapy attenuates ECM and proliferative gene expression in pulmonary fibrosis. […] Three groups of mice (N=4 mice/group) on Dox for two weeks were treated with either vehicle or naltrexone (10 mg/kg or 50 mg/kg bodyweight, b.i.d) and sacrificed after a week of treatment while continued on Dox. The down arrow represents initiation of the vehicle or drug treatment (at two weeks on Dox) and the horizontal arrows indicate the duration of vehicle or drug treatment (one week while continuing to administer Dox). […] The RNA from the three ECM genes decreased when treated with naltrexone. […] The RNA from the three proliferation genes decreased when treated with naltrexone.
# TGFα mice [3] = experiment: Naltrexone therapy in TGFα-induced pulmonary fibrosis: body weight, lung weight, lung function (FlexiVent); format: in vivo; conditions: 80 mg/kg b.i.d. for three weeks, started after three weeks on Dox, vs vehicle
# Procedure: (§2) FIG. 7: Naltrexone therapy attenuates body weight loss in pulmonary fibrosis. (A) Experimental schemata of naltrexone therapy study in vivo. Three groups of mice on Dox for three weeks were treated with either vehicle or naltrexone (80 mg/kg bodyweight, b.i.d) and then sacrificed after three weeks of treatment while continued on Dox. (B) The loss of body weight was attenuated with naltrexone therapy compared to vehicle treatment in TGFα mice. One-Way ANOVA (N=4−6/group; *P<0.05).
# as §2, with “8:” for “7:”, “increase in lung weights” for “body weight loss”, “fibrosis.” for “fibrosis. (A) Experimental schemata of naltrexone therapy study in vivo.”, “Dox.” for “Dox. (B)”, “increase in lung weights” for “loss of body weight”
# FIG. 9: Naltrexone therapy attenuates lung function decline in pulmonary fibrosis. Three groups of mice on Dox for three weeks were treated with either vehicle or naltrexone (80 mg/kg bodyweight, b.i.d) and then sacrificed after three weeks of treatment while continued on Dox. Decrease in the lung function (A,
# Resistance; B, Compliance; C, Elastance) was attenuated with naltrexone therapy compared to vehicle treatment in TGFα mice. One-Way ANOVA (N=4−6/group; *P<0.05).
# as §1
# Naltrexone therapy attenuates body weight loss in pulmonary fibrosis. […] Three groups of mice (N=4−6 mice/group) were on Dox for three weeks, and were then treated with either vehicle or naltrexone (80 mg/kg bodyweight, b.i.d) along with Dox for another three weeks; six weeks after being on DOX and three weeks after being treated with vehicle or naltrexone, the mice were sacrificed. The down arrow represents initiation of the vehicle or naltrexone treatment and the horizontal arrows indicate the duration of the vehicle or naltrexone treatment (three weeks while continuing to administer Dox).
# Naltrexone therapy attenuates increase in lung weights in pulmonary fibrosis. Mice (N=4−6 mice/group) were on Dox for three weeks, and were then treated with either vehicle or naltrexone (80 mg/kg bodyweight, b.i.d) along with Dox for another three weeks; six weeks after being on DOX and three weeks after being treated with vehicle or naltrexone, the mice were sacrificed (See, e.g., FIG. 7A). […] In TGFα mice, increases in lung weight are due to pulmonary fibrosis.
# Naltrexone therapy attenuates lung function decline in pulmonary fibrosis. […]
compound,measurement,setting,value
Cc1ccc(=O)n(-c2ccccc2)c1 [pirfenidone],Effect on mortality,[1],neither pirfenidone nor nintedanib had any effect
same,Effect on respiratory symptoms,[1],no effect
COC(=O)c1ccc2c(c1)NC(=O)/C2=C(\Nc1ccc(N(C)C(=O)CN2CCN(C)CC2)cc1)c1ccccc1 [nintedanib],Effect on mortality,[1],neither pirfenidone nor nintedanib had any effect
bleomycin,Increase in airway resistance,mice,greater than two-fold
same,Increase in lung hydroxyproline levels,mice,greater than two-fold
"O=C1CC[C@@]2(O)[C@H]3Cc4ccc(O)c5c4[C@@]2(CCN3CC2CC2)[C@H]1O5 [naltrexone, 17-(cyclopropylmethyl)-4,5α-epoxy-3,14-dihydroxymorphinan-6-one]",Expression of ECM gene alpha smooth-muscle actin (αSMA),IPF fibroblasts,inhibited
same,Expression of ECM gene fibronectin 1 (FN1),IPF fibroblasts,inhibited
same,Expression of ECM gene procollagen 3α1 (Col3α),IPF fibroblasts,inhibited
same,Expression of proliferation gene Aurora kinase A (AURKA),IPF fibroblasts,inhibited
same,Total lung RNA expression of ECM gene Collagen alpha 1 V (Col5α),TGFα mice [2],decreased
same,Total lung RNA expression of ECM gene Collagen alpha 1 VI (Col6α),TGFα mice [2],decreased
same,Total lung RNA expression of ECM gene Fibronectin (FN1),TGFα mice [2],decreased
same,Total lung RNA expression of proliferation gene Aurora kinase A (Aurka),TGFα mice [2],decreased
same,Total lung RNA expression of proliferation gene Calcitonin Related Polypeptide Beta (Calcb),TGFα mice [2],decreased
same,Total lung RNA expression of proliferation gene Interleuken 6 (IL-6),TGFα mice [2],decreased
same,Dox-induced changes in lung function: Compliance,TGFα mice [3]; FlexiVent,reversed
same,Dox-induced changes in lung function: Elastance,TGFα mice [3]; FlexiVent,reversed
same,Dox-induced changes in lung function: Resistance,TGFα mice [3]; FlexiVent,reversed
same,Increase in lung weights,TGFα mice [3],attenuated
same,Loss of body weight,TGFα mice [3],attenuated
